Reference: publication PMC9067983, “Identification of highly selective type II kinase inhibitors with chiral peptidomimetic tails” (Journal of Enzyme Inhibition and Medicinal Chemistry, 2022)
Where a SMILES comes first, the peptide text is derived from it. [ ]: non-standard residue; d: D form. The star is where a group is joined. X1 = Cc1ccc(Nc2ncc3c(n2)N(C)C(=O)N(c2cc(C(=O)*)ccc2C)C3)cn1; Aib = CC(C)(N)C(=O)O

Key:
Assay in all cases: kinase selectivity profiling
Assay type in all cases: biochemical
Settings in all cases: 10µM ATP, read-out: % inhibition (relative to DMSO)
[1] = target: T1, NEK2 (Homo sapiens, UniProt P51955)
T1 construct: purchased Reaction Biology Corp
Method: (§1) Full panel kinase profiling and kinase IC50 measurement were performed by using Reaction Biology Corp. (San Diego, USA).

[2] = target: T2, HCK (Homo sapiens, UniProt P08631)
T2 construct: purchased Reaction Biology Corp
Method: as §1

[3] = target: T3, NEK8 (Homo sapiens, UniProt Q86SG6)
T3 construct: purchased Reaction Biology Corp
Method: as §1

[4] = target: T4, P38d/MAPK13 (Homo sapiens, UniProt O15264)
T4 construct: purchased Reaction Biology Corp
Method: as §1

[5] = target: T5, MARK3 (Homo sapiens, UniProt P27448)
T5 construct: purchased Reaction Biology Corp
Method: as §1

[6] = target: T6, FGFR4 (Homo sapiens, UniProt P22455)
T6 construct: purchased Reaction Biology Corp
Method: as §1

[7] = target: T7, CHK1 (Homo sapiens, UniProt O14757)
T7 construct: purchased Reaction Biology Corp
T7 sequence (O14757 whole entry): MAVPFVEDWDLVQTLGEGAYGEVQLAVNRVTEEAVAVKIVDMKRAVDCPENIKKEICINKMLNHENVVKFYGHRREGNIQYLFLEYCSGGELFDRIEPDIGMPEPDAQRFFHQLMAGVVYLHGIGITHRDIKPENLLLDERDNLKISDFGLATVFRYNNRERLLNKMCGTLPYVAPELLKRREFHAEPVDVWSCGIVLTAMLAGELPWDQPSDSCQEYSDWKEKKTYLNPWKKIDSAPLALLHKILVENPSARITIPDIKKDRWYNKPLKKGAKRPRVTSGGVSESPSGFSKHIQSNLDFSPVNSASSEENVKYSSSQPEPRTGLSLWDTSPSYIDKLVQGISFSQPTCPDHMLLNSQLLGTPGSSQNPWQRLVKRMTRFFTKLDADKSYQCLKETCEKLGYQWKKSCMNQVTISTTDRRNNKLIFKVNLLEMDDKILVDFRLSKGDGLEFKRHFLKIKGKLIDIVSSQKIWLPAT
Method: as §1

[8] = target: T8, PAK1 (Homo sapiens, UniProt Q13153)
T8 construct: purchased Reaction Biology Corp
Method: as §1

[9] = target: T9, CDK9/cyclin K (Homo sapiens, UniProt P50750)
T9 construct: purchased Reaction Biology Corp
T9 sequence (P50750 whole entry): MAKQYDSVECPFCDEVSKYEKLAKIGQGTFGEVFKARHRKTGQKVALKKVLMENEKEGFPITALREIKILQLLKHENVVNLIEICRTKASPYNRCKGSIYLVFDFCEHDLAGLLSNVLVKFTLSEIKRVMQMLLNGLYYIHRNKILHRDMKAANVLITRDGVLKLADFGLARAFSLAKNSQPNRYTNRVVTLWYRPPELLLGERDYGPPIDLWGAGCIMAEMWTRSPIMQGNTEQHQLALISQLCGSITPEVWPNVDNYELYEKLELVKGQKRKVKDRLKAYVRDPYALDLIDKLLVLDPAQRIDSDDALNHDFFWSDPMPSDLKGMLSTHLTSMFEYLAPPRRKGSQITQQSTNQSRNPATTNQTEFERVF
T9 sequence (O75909 whole entry partner): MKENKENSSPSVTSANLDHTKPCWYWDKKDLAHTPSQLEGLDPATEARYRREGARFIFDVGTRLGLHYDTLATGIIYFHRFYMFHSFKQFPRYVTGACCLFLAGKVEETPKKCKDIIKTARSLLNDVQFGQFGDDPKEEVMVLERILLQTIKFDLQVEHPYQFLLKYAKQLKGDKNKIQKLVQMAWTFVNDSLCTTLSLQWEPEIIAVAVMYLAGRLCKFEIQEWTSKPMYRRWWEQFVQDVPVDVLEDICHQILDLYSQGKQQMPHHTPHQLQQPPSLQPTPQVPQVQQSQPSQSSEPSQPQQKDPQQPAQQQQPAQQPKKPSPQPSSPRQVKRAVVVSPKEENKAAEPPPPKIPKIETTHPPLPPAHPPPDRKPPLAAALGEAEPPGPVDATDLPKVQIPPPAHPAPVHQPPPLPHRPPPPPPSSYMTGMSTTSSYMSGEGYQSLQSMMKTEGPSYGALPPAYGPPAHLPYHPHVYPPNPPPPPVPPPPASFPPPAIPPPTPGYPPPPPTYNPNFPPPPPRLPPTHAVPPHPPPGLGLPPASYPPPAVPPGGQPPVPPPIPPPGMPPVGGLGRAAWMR
Method: as §1

[10] = target: T10, MAK (Homo sapiens, UniProt P20794)
T10 construct: purchased Reaction Biology Corp
Method: as §1

[11] = target: T11, RSK4 (Homo sapiens, UniProt Q9UK32)
T11 construct: purchased Reaction Biology Corp
Method: as §1

[12] = target: T12, PKCepsilon (Homo sapiens, UniProt Q02156)
T12 construct: purchased Reaction Biology Corp
Method: as §1

[13] = target: T13, MST1/STK4 (Homo sapiens, UniProt Q13043)
T13 construct: purchased Reaction Biology Corp
Method: as §1

[14] = target: T14, ALK (Homo sapiens, UniProt Q9UM73)
T14 construct: purchased Reaction Biology Corp
Method: as §1

[15] = target: T15, JAK2 (Homo sapiens, UniProt O60674)
T15 construct: purchased Reaction Biology Corp
Method: as §1

[16] = target: T16, FRK/PTK5 (Homo sapiens, UniProt P42685)
T16 construct: purchased Reaction Biology Corp
Method: as §1

[17] = target: T17, DMPK (Homo sapiens, UniProt Q09013)
T17 construct: purchased Reaction Biology Corp
Method: as §1

[18] = target: T18, GSK3a (Homo sapiens, UniProt P49840)
T18 construct: purchased Reaction Biology Corp
T18 sequence (P49840 whole entry): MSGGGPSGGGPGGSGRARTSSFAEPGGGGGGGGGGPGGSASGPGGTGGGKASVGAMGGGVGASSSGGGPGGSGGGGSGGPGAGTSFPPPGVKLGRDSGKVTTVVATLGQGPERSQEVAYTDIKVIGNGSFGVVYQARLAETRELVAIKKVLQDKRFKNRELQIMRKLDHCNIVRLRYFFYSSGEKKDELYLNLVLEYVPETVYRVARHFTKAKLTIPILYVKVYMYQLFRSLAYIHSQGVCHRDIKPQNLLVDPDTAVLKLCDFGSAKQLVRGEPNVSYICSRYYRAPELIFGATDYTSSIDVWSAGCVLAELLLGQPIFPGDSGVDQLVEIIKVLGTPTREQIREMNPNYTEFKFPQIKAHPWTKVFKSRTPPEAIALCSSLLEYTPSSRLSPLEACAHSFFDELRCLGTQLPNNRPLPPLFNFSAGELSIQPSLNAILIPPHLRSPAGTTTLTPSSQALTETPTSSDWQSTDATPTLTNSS
Method: as §1

[19] = target: T19, HIPK2 (Homo sapiens, UniProt Q9H2X6)
T19 construct: purchased Reaction Biology Corp
T19 sequence (Q9H2X6 whole entry): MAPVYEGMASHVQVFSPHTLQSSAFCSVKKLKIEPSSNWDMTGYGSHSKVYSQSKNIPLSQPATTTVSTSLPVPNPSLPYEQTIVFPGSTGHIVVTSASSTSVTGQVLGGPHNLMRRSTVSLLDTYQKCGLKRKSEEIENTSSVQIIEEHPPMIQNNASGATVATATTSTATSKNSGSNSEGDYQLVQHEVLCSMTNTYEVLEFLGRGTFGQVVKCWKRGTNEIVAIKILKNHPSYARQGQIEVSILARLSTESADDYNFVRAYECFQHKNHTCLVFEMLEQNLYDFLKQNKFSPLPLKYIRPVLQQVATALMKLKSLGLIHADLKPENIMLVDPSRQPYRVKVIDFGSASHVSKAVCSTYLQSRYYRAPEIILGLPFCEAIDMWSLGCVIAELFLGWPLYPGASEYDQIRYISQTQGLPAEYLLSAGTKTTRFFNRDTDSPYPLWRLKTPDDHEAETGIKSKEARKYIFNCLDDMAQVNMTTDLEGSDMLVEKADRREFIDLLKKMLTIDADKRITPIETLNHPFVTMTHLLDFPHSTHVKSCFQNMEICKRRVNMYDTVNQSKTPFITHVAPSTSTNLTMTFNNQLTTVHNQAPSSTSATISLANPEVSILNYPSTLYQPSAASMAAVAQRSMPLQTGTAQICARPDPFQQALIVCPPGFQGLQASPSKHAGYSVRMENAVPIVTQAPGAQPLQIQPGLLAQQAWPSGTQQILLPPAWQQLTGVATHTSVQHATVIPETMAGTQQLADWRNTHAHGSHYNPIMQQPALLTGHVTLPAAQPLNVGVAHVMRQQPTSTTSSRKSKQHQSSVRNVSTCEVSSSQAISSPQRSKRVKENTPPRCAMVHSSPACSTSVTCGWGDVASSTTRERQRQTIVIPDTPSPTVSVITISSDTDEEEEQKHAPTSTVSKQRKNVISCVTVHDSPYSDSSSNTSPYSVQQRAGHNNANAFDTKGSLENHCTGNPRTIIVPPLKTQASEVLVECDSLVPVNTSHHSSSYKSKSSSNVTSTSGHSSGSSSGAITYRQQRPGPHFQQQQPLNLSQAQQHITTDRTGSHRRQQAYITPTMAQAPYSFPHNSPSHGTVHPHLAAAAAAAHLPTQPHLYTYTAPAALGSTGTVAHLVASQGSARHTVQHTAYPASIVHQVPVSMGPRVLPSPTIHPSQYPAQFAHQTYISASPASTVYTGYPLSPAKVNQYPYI
Method: as §1

[20] = target: T20, PYK2 (Homo sapiens, UniProt Q14289)
T20 construct: purchased Reaction Biology Corp
Method: as §1

[21] = target: T21, MLCK2/MYLK2 (Homo sapiens, UniProt Q9H1R3)
T21 construct: purchased Reaction Biology Corp
Method: as §1

[22] = target: T22, c-Src (Homo sapiens, UniProt P12931)
T22 construct: purchased Reaction Biology Corp
Method: as §1

[23] = target: T23, VRK1 (Homo sapiens, UniProt Q99986)
T23 construct: purchased Reaction Biology Corp
T23 sequence (Q99986 whole entry): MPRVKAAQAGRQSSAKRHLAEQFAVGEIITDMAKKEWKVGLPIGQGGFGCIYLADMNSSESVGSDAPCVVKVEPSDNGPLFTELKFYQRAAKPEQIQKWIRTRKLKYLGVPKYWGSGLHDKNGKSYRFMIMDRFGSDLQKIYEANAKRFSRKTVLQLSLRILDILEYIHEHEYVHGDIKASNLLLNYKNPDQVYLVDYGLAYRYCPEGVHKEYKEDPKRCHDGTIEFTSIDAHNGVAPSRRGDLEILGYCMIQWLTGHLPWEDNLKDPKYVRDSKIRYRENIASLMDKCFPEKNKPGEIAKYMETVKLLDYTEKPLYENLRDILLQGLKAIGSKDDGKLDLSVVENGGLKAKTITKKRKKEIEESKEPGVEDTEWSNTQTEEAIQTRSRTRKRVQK
Method: as §1

[24] = target: T24, CK2a (Homo sapiens, UniProt P68400)
T24 construct: purchased Reaction Biology Corp
Method: as §1

[25] = target: T25, PKAcg (Homo sapiens, UniProt P22612)
T25 construct: purchased Reaction Biology Corp
Method: as §1

[26] = target: T26, NLK (Homo sapiens, UniProt Q9UBE8)
T26 construct: purchased Reaction Biology Corp
Method: as §1

[27] = target: T27, LIMK2 (Homo sapiens, UniProt P53671)
T27 construct: purchased Reaction Biology Corp
Method: as §1

[28] = target: T28, CDK17/cyclin Y (PCTK2) (Homo sapiens, UniProt Q00537)
T28 construct: purchased Reaction Biology Corp
Method: as §1

[29] = target: T29, TRKA (Homo sapiens, UniProt P04629)
T29 construct: purchased Reaction Biology Corp
Method: as §1

[30] = target: T30, TLK2 (Homo sapiens, UniProt Q86UE8)
T30 construct: purchased Reaction Biology Corp
Method: as §1

[31] = target: T31, ERN2/IRE2 (Homo sapiens, UniProt Q76MJ5)
T31 construct: purchased Reaction Biology Corp
Method: as §1

[32] = target: T32, Aurora C (Homo sapiens, UniProt Q9UQB9)
T32 construct: purchased Reaction Biology Corp
Method: as §1

[33] = target: T33, CHK2 (Homo sapiens, UniProt O96017)
T33 construct: purchased Reaction Biology Corp
Method: as §1

[34] = target: T34, CAMK2b (Homo sapiens, UniProt Q13554)
T34 construct: purchased Reaction Biology Corp
Method: as §1

[35] = target: T35, ALK1/ACVRL1 (Homo sapiens, UniProt P37023)
T35 construct: purchased Reaction Biology Corp
Method: as §1

[36] = target: T36, FER (Homo sapiens, UniProt P16591)
T36 construct: purchased Reaction Biology Corp
Method: as §1

[37] = target: T37, MST3/STK24 (Homo sapiens, UniProt Q9Y6E0)
T37 construct: purchased Reaction Biology Corp
Method: as §1

[38] = target: T38, PEAK1 (Homo sapiens, UniProt Q9H792)
T38 construct: purchased Reaction Biology Corp
Method: as §1

[39] = target: T39, SRPK1 (Homo sapiens, UniProt Q96SB4)
T39 construct: purchased Reaction Biology Corp
T39 sequence (Q96SB4 whole entry): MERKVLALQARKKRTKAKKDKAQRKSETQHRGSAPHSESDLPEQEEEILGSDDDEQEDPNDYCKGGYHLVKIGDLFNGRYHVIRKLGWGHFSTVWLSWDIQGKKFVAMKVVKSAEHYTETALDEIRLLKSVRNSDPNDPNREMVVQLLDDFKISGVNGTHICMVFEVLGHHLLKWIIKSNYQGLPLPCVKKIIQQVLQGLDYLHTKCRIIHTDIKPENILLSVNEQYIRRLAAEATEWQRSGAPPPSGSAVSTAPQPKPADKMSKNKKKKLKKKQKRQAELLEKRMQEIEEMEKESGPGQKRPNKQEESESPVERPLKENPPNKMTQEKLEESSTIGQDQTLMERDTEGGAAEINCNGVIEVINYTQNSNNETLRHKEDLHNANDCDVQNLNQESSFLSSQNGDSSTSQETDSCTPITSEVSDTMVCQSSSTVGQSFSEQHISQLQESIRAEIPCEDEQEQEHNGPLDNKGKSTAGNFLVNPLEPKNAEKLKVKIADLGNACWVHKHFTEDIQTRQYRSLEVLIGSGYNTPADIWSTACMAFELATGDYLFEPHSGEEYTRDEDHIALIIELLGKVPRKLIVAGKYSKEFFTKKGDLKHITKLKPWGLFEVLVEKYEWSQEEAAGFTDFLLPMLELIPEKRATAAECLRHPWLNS
Method: as §1

[40] = target: T40, CAMKK2 (Homo sapiens, UniProt Q96RR4)
T40 construct: purchased Reaction Biology Corp
T40 sequence (Q96RR4 whole entry): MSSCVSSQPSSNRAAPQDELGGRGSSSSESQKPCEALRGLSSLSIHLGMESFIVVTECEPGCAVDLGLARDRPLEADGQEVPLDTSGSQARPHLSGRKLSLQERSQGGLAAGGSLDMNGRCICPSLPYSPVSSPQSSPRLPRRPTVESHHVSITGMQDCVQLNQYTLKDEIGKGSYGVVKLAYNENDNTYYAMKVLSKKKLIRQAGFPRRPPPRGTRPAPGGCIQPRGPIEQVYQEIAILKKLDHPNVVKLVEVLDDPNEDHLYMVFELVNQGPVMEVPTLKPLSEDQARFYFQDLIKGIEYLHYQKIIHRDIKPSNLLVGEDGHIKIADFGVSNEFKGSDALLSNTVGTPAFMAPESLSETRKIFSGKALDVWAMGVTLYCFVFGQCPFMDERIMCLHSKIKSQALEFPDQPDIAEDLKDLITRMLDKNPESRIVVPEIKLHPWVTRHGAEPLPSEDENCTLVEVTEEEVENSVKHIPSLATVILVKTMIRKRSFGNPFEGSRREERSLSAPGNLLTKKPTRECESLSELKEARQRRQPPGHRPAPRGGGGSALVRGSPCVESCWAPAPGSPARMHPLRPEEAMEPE
Method: as §1

[41] = target: T41, MINK/MINK1 (Homo sapiens, UniProt Q8N4C8)
T41 construct: purchased Reaction Biology Corp
Method: as §1

[42] = target: T42, ERK5/MAPK7 (Homo sapiens, UniProt Q13164)
T42 construct: purchased Reaction Biology Corp
Method: as §1

[43] = target: T43, CDK14/cyclin Y (PFTK1) (Homo sapiens, UniProt O94921)
T43 construct: purchased Reaction Biology Corp
Method: as §1

`Cc1ccc(Nc2ncc3c(n2)N(C)C(=O)N(c2cc(C(=O)N[C@H](C(=O)N4CCC[C@H]4C(=O)NC(C)(C)C(=O)N[C@@H](CC(C)C)C(=O)N(C)C)C(C)C)ccc2C)C3)cn1` [7a, (S)-N-(1-(((S)-1-(dimethylamino)-4-methyl-1-oxopentan-2-yl)amino)-2-methyl-1-oxopropan-2-yl)-1-((4-methyl-3-(1-methyl-7-((6-methylpyridin-3-yl)amino)-2-oxo-1,4-dihydropyrimido[4,5-d]pyrimidin-3(2H)-yl)benzoyl)-L-valyl)pyrrolidine-2-carboxamide] (X1-VP[Aib]L-NMe2) was tested, and the inhibition at 1 µM [1] was 0%, the inhibition at 1 µM [2] was 38% and the inhibition at 1 µM [3] was 1%. For the same molecule, the inhibition at 1 µM [4] was 0%, the inhibition at 1 µM [5] was 4% and the inhibition at 1 µM [6] was 5%. For the same molecule, the inhibition at 1 µM [7] was 0%, the inhibition at 1 µM [8] was 5% and the inhibition at 1 µM [9] was 0%. The inhibition at 1 µM [10] was 0%, the inhibition at 1 µM [11] was 0% and the inhibition at 1 µM [12] was 1%. For the same molecule, the inhibition at 1 µM [13] was 5%, the inhibition at 1 µM [14] was 0% and the inhibition at 1 µM [15] was 11%. It also gave an inhibition at 1 µM [16] of 15%, an inhibition at 1 µM [17] of 0% and an inhibition at 1 µM [18] of 10%. The inhibition at 1 µM [19] was 0%, the inhibition at 1 µM [20] was 8% and the inhibition at 1 µM [21] was 0%. For the same molecule, the inhibition at 1 µM [22] was 64%, the inhibition at 1 µM [23] was 0% and the inhibition at 1 µM [24] was 5%. For the same molecule, the inhibition at 1 µM [25] was 0%, the inhibition at 1 µM [26] was 3% and the inhibition at 1 µM [27] was 12%. It also gave an inhibition at 1 µM [28] of 7%, an inhibition at 1 µM [29] of 0% and an inhibition at 1 µM [30] of 0%. It also gave an inhibition at 1 µM [31] of 2%, an inhibition at 1 µM [32] of 0% and an inhibition at 1 µM [33] of 4%. For the same molecule, the inhibition at 1 µM [34] was 3%, the inhibition at 1 µM [35] was 17% and the inhibition at 1 µM [36] was 0%. The inhibition at 1 µM [37] was 0%, the inhibition at 1 µM [38] was 44% and the inhibition at 1 µM [39] was 5%. The inhibition at 1 µM [40] was 10%, the inhibition at 1 µM [41] was 2% and the inhibition at 1 µM [42] was 5%. For the same molecule, the inhibition at 1 µM [43] was 6%.
